Experiments:
[1] = target: Casein kinase I isoform gamma-2 (Homo sapiens) (UniProt P78368); assay: Inhibition of CSNK1G2 (unknown origin) assessed as residual activity at 1000 nM by KINOMEscan analysis relative to control
[2] = target: Dual specificity mitogen-activated protein kinase kinase 2 (Homo sapiens) (UniProt P36507); assay: Inhibition of MEK2 (unknown origin) assessed as residual activity at 1000 nM by KINOMEscan analysis relative to control
[3] = system: Tyrosine-protein kinase ABL1 (Homo sapiens), P00519 [F317I]; assay: Inhibition of nonphosphorylated ABL1 F317I mutant (unknown origin) assessed as residual activity at 1000 nM by KINOMEscan analysis relative to control
[4] = target: T1, Membrane-associated tyrosine- and threonine-specific cdc2-inhibitory kinase (Homo sapiens) (UniProt Q99640); assay: Inhibition of PKMYT1 (unknown origin) assessed as residual activity at 1000 nM by KINOMEscan analysis relative to control
T1 sequence (whole entry): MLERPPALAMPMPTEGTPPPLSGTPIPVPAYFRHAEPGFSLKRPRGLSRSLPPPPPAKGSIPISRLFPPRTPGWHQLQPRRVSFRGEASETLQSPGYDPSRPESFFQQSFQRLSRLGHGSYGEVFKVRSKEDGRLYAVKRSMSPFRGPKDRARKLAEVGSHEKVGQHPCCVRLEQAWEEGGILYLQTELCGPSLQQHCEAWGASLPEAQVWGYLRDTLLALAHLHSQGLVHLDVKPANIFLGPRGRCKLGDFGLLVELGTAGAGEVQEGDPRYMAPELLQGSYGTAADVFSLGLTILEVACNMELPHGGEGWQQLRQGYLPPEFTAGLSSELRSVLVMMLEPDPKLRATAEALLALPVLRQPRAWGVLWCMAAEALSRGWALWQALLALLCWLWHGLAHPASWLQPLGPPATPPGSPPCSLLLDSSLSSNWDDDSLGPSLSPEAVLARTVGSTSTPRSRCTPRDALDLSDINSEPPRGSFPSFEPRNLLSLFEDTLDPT

[5] = target: T2, Phosphatidylinositol 3-kinase C2 domain-containing subunit gamma (Homo sapiens) (UniProt O75747); assay: Inhibition of PIK3C2G (unknown origin) assessed as residual activity at 1000 nM by KINOMEscan analysis relative to control
T2 sequence (whole entry): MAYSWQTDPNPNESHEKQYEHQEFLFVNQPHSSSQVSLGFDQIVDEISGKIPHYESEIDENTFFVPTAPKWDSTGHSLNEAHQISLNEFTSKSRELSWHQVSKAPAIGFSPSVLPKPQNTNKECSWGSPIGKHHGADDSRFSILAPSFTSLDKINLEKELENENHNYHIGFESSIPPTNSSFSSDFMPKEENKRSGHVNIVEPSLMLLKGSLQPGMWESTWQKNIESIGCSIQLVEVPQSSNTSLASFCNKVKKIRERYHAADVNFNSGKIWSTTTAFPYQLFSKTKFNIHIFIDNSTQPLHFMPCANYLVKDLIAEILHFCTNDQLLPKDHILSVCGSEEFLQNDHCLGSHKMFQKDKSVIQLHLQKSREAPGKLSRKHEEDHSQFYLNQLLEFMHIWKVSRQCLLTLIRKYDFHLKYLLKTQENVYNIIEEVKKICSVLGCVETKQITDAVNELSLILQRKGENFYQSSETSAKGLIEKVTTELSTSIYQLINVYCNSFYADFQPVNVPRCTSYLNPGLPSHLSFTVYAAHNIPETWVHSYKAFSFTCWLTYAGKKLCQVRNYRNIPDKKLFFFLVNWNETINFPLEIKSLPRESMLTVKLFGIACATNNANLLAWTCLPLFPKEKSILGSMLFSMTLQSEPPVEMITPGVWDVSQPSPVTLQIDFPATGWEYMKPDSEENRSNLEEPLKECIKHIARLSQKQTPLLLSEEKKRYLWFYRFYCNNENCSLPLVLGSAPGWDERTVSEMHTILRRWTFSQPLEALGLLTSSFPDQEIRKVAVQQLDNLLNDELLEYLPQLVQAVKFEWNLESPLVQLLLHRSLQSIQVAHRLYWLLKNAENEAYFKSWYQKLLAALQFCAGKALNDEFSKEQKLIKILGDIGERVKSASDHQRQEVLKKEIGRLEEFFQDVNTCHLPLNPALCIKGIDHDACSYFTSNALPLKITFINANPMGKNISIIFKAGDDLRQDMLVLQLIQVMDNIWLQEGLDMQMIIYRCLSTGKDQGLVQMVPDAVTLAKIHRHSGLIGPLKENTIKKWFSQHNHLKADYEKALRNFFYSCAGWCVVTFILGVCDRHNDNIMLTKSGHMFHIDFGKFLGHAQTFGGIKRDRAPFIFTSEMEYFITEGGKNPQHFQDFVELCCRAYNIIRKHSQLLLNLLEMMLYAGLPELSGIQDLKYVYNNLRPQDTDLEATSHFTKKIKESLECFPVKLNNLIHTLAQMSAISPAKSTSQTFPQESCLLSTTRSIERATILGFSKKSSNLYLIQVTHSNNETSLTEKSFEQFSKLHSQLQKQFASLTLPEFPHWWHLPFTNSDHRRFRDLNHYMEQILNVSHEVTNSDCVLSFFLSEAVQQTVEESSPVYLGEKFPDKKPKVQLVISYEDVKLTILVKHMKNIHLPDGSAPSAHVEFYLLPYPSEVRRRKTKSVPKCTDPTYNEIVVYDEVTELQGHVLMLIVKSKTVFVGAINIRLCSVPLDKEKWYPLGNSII

[6] = target: Homeodomain-interacting protein kinase 2 (Homo sapiens) (UniProt Q9H2X6); assay: Inhibition of HIPK2 (unknown origin) assessed as residual activity at 1000 nM by KINOMEscan analysis relative to control
Homeodomain-interacting protein kinase 2 (Homo sapiens), sequence (Q9H2X6 whole entry, looked up): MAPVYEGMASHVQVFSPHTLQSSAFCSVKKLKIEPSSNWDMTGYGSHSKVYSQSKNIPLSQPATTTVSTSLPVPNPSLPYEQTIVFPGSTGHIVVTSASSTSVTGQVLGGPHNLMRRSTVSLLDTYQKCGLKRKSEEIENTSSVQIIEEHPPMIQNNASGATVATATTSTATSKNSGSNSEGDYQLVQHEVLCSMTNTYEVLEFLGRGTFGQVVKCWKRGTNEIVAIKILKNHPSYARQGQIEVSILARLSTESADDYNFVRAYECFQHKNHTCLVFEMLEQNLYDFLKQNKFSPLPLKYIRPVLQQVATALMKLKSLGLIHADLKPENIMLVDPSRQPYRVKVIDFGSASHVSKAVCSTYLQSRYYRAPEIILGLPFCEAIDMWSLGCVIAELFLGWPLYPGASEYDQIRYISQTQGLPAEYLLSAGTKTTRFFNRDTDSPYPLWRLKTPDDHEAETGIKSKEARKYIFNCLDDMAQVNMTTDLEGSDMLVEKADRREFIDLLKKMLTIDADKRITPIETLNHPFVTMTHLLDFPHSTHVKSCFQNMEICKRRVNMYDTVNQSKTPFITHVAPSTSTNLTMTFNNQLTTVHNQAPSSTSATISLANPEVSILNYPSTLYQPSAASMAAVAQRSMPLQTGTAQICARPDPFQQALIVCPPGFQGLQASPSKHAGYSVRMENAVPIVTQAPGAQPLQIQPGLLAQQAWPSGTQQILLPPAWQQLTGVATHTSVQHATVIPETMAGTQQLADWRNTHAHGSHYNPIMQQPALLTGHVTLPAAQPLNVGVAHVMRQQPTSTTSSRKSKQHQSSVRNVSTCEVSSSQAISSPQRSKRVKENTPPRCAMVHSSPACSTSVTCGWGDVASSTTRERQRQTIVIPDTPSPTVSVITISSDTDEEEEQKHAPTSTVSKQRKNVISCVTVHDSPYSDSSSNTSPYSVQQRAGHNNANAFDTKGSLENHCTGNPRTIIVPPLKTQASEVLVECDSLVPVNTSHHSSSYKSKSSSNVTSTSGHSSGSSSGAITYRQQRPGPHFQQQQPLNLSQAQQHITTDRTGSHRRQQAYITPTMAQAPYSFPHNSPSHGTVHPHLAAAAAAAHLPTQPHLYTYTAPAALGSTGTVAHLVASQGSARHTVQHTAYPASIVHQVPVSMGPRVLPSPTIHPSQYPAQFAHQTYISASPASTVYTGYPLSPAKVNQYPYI

[7] = target: Cyclin-dependent kinase 2 homolog (Plasmodium falciparum (isolate K1 / Thailand)) (UniProt Q07785); assay: Inhibition of Plasmodium falciparum PK5 assessed as residual activity at 1000 nM by KINOMEscan analysis relative to control
Cyclin-dependent kinase 2 homolog (Plasmodium falciparum (isolate K1 / Thailand)), sequence (Q07785 whole entry): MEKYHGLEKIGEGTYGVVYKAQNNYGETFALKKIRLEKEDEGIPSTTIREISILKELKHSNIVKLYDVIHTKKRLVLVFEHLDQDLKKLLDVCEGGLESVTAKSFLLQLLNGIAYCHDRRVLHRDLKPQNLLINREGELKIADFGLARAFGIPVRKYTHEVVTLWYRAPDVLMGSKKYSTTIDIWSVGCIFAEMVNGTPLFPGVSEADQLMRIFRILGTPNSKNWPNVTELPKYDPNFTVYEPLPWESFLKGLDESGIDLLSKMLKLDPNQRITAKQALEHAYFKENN

[8] = target: Ephrin type-A receptor 4 (Homo sapiens) (UniProt P54764); assay: Inhibition of EPHA4 (unknown origin) assessed as residual activity at 1000 nM by KINOMEscan analysis relative to control
Ephrin type-A receptor 4 (Homo sapiens), sequence (P54764 whole entry): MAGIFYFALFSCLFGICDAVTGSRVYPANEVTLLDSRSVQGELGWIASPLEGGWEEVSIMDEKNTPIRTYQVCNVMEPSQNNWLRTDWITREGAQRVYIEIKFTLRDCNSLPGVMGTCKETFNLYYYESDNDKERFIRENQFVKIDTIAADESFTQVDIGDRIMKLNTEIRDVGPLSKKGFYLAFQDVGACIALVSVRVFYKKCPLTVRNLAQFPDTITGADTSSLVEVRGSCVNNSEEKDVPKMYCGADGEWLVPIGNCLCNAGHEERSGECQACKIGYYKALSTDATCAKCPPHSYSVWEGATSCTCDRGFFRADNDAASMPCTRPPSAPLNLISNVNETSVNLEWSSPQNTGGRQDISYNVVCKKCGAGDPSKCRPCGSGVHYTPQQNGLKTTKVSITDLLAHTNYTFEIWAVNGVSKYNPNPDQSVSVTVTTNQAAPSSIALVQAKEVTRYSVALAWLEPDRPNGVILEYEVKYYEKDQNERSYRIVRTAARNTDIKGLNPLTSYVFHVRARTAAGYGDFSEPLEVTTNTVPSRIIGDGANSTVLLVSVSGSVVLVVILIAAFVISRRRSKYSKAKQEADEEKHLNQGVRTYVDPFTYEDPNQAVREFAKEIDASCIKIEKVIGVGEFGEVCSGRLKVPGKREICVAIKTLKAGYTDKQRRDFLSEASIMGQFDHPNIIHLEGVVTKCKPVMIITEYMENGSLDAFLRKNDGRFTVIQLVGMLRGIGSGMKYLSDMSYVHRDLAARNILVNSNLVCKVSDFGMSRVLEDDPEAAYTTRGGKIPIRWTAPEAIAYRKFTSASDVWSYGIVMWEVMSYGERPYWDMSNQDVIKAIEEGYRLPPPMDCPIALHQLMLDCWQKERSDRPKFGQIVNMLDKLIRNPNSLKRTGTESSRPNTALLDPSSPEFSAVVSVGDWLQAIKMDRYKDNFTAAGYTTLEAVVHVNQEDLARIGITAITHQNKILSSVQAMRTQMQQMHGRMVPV

[9] = target: Serine/threonine-protein kinase SBK1 (Homo sapiens) (UniProt Q52WX2); assay: Inhibition of SBK1 (unknown origin) assessed as residual activity at 1000 nM by KINOMEscan analysis relative to control
Serine/threonine-protein kinase SBK1 (Homo sapiens), sequence (Q52WX2 whole entry): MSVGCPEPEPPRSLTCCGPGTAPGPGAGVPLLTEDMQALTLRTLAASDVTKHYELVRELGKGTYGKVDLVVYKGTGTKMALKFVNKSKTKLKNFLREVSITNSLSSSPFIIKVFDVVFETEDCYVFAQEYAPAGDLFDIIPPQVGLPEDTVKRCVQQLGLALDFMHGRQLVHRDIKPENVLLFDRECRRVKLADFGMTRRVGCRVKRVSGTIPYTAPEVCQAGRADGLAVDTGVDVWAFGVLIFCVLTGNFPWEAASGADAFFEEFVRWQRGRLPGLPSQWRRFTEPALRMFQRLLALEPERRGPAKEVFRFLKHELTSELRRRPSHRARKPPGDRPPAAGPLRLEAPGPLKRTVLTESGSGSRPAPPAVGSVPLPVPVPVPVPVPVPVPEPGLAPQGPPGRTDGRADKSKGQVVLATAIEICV

[10] = target: Mast/stem cell growth factor receptor Kit (Homo sapiens) (UniProt P10721); assay: Inhibition of autoinhibited KIT (unknown origin) assessed as residual activity at 1000 nM by KINOMEscan analysis relative to control
[11] = target: BMP-2-inducible protein kinase (Homo sapiens) (UniProt Q9NSY1); assay: Inhibition of BIKE (unknown origin) assessed as residual activity at 1000 nM by KINOMEscan analysis relative to control
BMP-2-inducible protein kinase (Homo sapiens), sequence (Q9NSY1 whole entry, looked up): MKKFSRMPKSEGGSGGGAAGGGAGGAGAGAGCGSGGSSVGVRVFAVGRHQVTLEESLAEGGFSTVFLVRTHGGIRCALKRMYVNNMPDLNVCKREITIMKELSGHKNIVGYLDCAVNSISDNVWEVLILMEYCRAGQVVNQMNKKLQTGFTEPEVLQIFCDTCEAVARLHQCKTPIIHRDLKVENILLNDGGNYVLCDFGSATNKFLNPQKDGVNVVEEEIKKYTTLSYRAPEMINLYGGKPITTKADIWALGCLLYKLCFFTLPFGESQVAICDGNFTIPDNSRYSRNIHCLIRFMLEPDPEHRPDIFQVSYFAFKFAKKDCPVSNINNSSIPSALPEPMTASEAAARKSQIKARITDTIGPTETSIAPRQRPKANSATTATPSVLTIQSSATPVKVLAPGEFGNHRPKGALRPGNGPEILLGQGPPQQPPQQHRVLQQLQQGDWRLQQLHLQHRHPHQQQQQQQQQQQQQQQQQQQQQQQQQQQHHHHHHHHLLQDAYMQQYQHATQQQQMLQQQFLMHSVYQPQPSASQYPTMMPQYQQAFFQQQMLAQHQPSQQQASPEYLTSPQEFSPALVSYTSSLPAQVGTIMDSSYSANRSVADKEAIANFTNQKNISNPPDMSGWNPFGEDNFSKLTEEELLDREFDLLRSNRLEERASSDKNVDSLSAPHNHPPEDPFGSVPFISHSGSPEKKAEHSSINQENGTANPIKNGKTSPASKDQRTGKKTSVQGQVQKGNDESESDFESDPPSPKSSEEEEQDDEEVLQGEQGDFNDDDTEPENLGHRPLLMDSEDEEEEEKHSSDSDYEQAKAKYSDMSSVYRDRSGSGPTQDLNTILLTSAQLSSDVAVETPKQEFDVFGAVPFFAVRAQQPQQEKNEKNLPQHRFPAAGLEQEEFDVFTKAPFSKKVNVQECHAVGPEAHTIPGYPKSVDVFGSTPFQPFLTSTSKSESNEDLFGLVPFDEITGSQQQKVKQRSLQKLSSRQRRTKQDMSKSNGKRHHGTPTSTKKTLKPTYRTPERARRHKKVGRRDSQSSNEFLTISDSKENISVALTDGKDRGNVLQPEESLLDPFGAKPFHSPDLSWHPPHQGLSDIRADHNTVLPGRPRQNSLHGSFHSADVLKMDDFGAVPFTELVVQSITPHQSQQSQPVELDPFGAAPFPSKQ

[12] = target: Platelet-derived growth factor receptor beta (Homo sapiens) (UniProt P09619); assay: Inhibition of PDGFRB (unknown origin) assessed as residual activity at 1000 nM by KINOMEscan analysis relative to control

Casein kinase I isoform gamma-2 (Homo sapiens), sequence (P78368 whole entry, looked up, canonical isoform): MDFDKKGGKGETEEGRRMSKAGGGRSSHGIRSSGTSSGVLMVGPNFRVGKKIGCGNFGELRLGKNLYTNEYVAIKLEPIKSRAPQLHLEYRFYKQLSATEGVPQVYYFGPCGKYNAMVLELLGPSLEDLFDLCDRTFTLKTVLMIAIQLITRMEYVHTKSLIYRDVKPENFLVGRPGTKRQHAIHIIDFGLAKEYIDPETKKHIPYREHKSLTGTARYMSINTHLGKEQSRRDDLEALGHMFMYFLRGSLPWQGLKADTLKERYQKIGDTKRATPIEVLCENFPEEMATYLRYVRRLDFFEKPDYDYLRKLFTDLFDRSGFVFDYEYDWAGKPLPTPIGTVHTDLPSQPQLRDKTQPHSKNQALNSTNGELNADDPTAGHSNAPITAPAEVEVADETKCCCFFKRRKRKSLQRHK
Dual specificity mitogen-activated protein kinase kinase 2 (Homo sapiens), sequence (P36507 whole entry): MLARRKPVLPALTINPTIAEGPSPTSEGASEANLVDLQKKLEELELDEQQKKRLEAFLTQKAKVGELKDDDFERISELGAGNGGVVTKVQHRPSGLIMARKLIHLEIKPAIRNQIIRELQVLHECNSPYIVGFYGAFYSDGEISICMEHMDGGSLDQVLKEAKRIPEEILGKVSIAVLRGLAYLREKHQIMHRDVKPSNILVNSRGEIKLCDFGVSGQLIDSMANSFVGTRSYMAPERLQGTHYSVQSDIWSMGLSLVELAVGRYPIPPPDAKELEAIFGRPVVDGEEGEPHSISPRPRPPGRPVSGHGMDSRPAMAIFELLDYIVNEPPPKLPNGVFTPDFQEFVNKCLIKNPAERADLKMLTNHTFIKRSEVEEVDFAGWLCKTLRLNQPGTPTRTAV

| SMILES | Activity [1] | Activity [2] | Activity [3] | Activity [4] | Activity [5] | Activity [6] | Activity [7] | Activity [8] | Activity [9] | Activity [10] | Activity [11] | Activity [12] |
| --- | --- | --- | --- | --- | --- | --- | --- | --- | --- | --- | --- | --- |
| COc1cc2nc(C)nc(N[C@H](C)c3cccc(-c4cn[nH]c4)c3)c2cc1OC | 100% | 63% | 84% | 53% | 87% | 100% | 98% | 96% | 85% | 100% | 71% | 100% |
| COc1cc2ncnc(N[C@H](C)c3cccc4ccccc34)c2cc1OC | 100% | 91% | 86% | 100% | 35% | 98% | 100% | 95% | 86% | 93% | 100% | 94% |

— ChEMBL document CHEMBL5678818, “Discovery of potent SOS1 inhibitors that block RAS activation via disruption of the RAS-SOS1 interaction” (Proc Natl Acad Sci U S A, 2019)
